Reference: the NIST ThermoML archive (doi:10.1021/je1002237)

Assay: xn = mol fraction of the nth substance listed
Details: 101 kPa, Liquid

CCOS(=O)(=O)[O-].CCn1cc[n+](C)c1 [1-ethyl-3-methylimidazolium ethyl sulfate] + ClCCl
x2 = 0
Details	mass density [kg/m3]
278.15 K	1251.04
283.15 K	1247.5
288.15 K	1244.04
293.15 K	1240.66
298.15 K	1237.27
303.15 K	1233.89
308.15 K	1230.51

CCOS(=O)(=O)[O-].CCn1cc[n+](C)c1 [1-ethyl-3-methylimidazolium ethyl sulfate] + CC#N
mass density [kg/m3]
Details	278.15 K	283.15 K	288.15 K	293.15 K	298.15 K	303.15 K	308.15 K
x2 = 0	1251.04	1247.5	1244.04	1240.66	1237.27	1233.89	1230.51
x2 = 0.0051	1250.84	1247.29	1243.84	1240.44	1237.06	1233.68	1230.3
x2 = 0.0099	1250	1246.45	1243.01	1239.61	1236.22	1232.83	1229.45
x2 = 0.0202	1249.09	1245.54	1242.11	1238.69	1235.31	1231.91	1228.53
x2 = 0.0499	1245.66	1242.09	1238.68	1235.26	1231.85	1228.44	1225.03
x2 = 0.1001	1239.88	1236.38	1232.93	1229.48	1226.04	1222.6	1219.16
x2 = 0.1426	1236.22	1232.77	1229.28	1225.81	1222.35	1218.9	1215.45
x2 = 0.2507	1218.64	1215.07	1211.5	1207.95	1204.39	1200.86	1197.33
x2 = 0.3434	1202.08	1198.44	1194.79	1191.15	1187.54	1183.93	1180.33
x2 = 0.4592	1177.36	1173.6	1169.85	1166.12	1162.39	1158.68	1154.98
x2 = 0.5799	1140.91	1137	1133.1	1129.22	1125.35	1121.49	1117.63
x2 = 0.679	1101.24	1097.17	1093.12	1089.08	1085.03	1081	1076.97
x2 = 0.7423	1068.73	1064.52	1060.33	1056.15	1051.97	1047.8	1043.63
x2 = 0.7865	1041.05	1036.74	1032.43	1028.13	1023.83	1019.53	1015.24
x2 = 0.8539	988.5	983.97	979.43	974.91	970.37	965.84	961.31
x2 = 0.897	945.89	941.18	936.47	931.76	927.04	922.31	917.58
x2 = 0.9342	902.15	897.28	892.39	887.47	882.61	877.89	873.12
x2 = 0.9567	871.14	866.13	861.1	856.07	851.01	845.95	840.87
x2 = 0.9707	849.53	844.43	839.31	834.19	829.04	823.87	818.69
x2 = 0.9803	833.78	828.62	823.44	818.24	813.02	807.78	802.52
x2 = 0.9872	821.79	816.57	811.34	806.09	800.81	795.52	790.19
x2 = 0.9925	812.49	807.23	801.95	796.67	791.34	786	780.62
x2 = 0.9967	804.39	799.09	793.78	788.44	783.08	777.69	772.28

ClCCl [dichloromethane] + CCOS(=O)(=O)[O-].CCn1cc[n+](C)c1
mass density [kg/m3]
Details	278.15 K	283.15 K	288.15 K	293.15 K	298.15 K	303.15 K	308.15 K
x1 = 0.0375	1252.39	1248.82	1245.38	1241.96	1238.55	1235.13	1231.72
x1 = 0.0731	1254.22	1250.64	1247.19	1243.72	1240.27	1236.81	1233.36
x1 = 0.1117	1255.78	1252.22	1248.72	1245.22	1241.73	1238.24	1234.76
x1 = 0.1664	1258.85	1255.31	1251.75	1248.14	1244.63	1241.08	1237.55
x1 = 0.2488	1263.74	1260.06	1256.38	1252.7	1249.03	1245.37	1241.71
x1 = 0.3308	1268.9	1265.09	1261.28	1257.48	1253.69	1249.9	1246.13
x1 = 0.4023	1274.69	1270.74	1266.78	1262.82	1258.9	1254.97	1251.05
x1 = 0.4624	1279.33	1275.26	1271.18	1267.11	1263.05	1259	1254.96
x1 = 0.5776	1290.69	1286.28	1281.87	1277.47	1273.07	1268.69	1264.32
x1 = 0.6593	1299.95	1295.23	1290.51	1285.8	1281.09	1276.39	1271.69
x1 = 0.7684	1315.91	1310.52	1305.14	1299.77	1294.38	1289	1283.61
x1 = 0.8377	1327.28	1321.28	1315.26	1309.25	1303.21	1297.16	1291.11
x1 = 0.8856	1335.58	1328.97	1322.35	1315.72	1309.05	1302.36	1295.65
x1 = 0.9207	1341.3	1334.16	1326.99	1319.81	1312.58	1305.32	1298.03
x1 = 0.9475	1345.71	1338.05	1330.35	1322.64	1314.87	1307.06	1299.21
x1 = 0.9687	1349.06	1340.91	1332.71	1324.48	1316.18	1307.85	1299.46
x1 = 0.9858	1351.32	1342.72	1334.07	1325.38	1316.61	1307.8	1298.92
x1 = 1	1352.84	1343.8	1334.71	1325.58	1316.34	1307.06	1297.69

CCO [ethanol] + CCOS(=O)(=O)[O-].CCn1cc[n+](C)c1
x1 = 1
Details	mass density [kg/m3]
278.15 K	802.12
283.15 K	797.89
288.15 K	793.63
293.15 K	789.37
298.15 K	785.08
303.15 K	780.77
308.15 K	776.42

CCOS(=O)(=O)[O-].CCn1cc[n+](C)c1 [1-ethyl-3-methylimidazolium ethyl sulfate] + CC(C)=O
mass density [kg/m3]
Details	278.15 K	283.15 K	288.15 K	293.15 K	298.15 K	303.15 K	308.15 K
x2 = 0	1251.04	1247.5	1244.04	1240.66	1237.27	1233.89	1230.51
x2 = 0.0048	1250.35	1246.8	1243.35	1239.97	1236.57	1233.18	1229.8
x2 = 0.0098	1249.71	1246.16	1242.72	1239.31	1235.93	1232.54	1229.15
x2 = 0.015	1248.99	1245.43	1242	1238.59	1235.2	1231.8	1228.41
x2 = 0.0249	1247.95	1244.39	1240.97	1237.55	1234.16	1230.76	1227.37
x2 = 0.0399	1245.49	1241.93	1238.51	1235.1	1231.67	1228.26	1224.86
x2 = 0.06	1242.52	1238.99	1235.56	1232.12	1228.69	1225.26	1221.85
x2 = 0.0799	1239.64	1236.15	1232.7	1229.24	1225.79	1222.35	1218.92
x2 = 0.1002	1236.48	1233.02	1229.54	1226.07	1222.61	1219.16	1215.71
x2 = 0.1501	1228.75	1225.24	1221.72	1218.21	1214.71	1211.21	1207.73
x2 = 0.2066	1218.26	1214.69	1211.11	1207.54	1204	1200.46	1196.93
x2 = 0.2998	1200.04	1196.37	1192.71	1189.06	1185.43	1181.81	1178.19
x2 = 0.3999	1176.43	1172.65	1168.88	1165.13	1161.39	1157.66	1153.94
x2 = 0.5	1146.24	1142.32	1138.42	1134.53	1130.65	1126.78	1122.92
x2 = 0.6	1109.44	1105.35	1101.27	1097.2	1093.15	1089.1	1085.07
x2 = 0.7	1062.54	1058.23	1053.92	1049.61	1045.32	1041.02	1036.74
x2 = 0.8	1001.65	997.03	992.4	987.78	983.15	978.52	973.88
x2 = 0.9003	920.34	915.32	910.28	905.21	900.15	895.06	889.95
x2 = 0.95	869.49	864.22	858.92	853.61	848.26	842.89	837.49

O [water] + CCOS(=O)(=O)[O-].CCn1cc[n+](C)c1
x1 = 1
Details	mass density [kg/m3]
278.15 K	999.96
283.15 K	999.69
